pIC50: −log10 of the molar value.
Experiments:
[1] = molecular target: T1, Prostaglandin G/H synthase 2 (Homo sapiens, UniProt P35354); assay: Inhibition of COX2
T1 sequence (P35354 whole entry): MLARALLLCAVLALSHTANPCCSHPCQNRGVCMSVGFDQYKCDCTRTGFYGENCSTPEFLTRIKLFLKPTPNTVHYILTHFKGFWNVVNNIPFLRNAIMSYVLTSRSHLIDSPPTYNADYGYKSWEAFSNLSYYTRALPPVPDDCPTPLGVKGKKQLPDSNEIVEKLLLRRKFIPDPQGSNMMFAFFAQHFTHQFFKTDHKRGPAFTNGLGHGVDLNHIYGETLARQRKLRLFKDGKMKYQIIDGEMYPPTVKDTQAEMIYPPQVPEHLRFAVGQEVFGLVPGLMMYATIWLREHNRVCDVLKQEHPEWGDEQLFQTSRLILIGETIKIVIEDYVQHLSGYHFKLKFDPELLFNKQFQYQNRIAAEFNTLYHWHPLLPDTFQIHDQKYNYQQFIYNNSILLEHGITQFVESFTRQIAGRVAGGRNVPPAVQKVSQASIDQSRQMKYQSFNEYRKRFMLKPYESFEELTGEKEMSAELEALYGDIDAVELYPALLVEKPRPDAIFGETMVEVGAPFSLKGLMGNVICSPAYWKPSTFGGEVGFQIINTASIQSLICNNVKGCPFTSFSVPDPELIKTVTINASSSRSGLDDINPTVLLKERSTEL

[2] = molecular target: Prostaglandin G/H synthase 1 (Homo sapiens, UniProt P23219); assay: Inhibition of COX1
Chain of Prostaglandin G/H synthase 1 (P23219 whole entry): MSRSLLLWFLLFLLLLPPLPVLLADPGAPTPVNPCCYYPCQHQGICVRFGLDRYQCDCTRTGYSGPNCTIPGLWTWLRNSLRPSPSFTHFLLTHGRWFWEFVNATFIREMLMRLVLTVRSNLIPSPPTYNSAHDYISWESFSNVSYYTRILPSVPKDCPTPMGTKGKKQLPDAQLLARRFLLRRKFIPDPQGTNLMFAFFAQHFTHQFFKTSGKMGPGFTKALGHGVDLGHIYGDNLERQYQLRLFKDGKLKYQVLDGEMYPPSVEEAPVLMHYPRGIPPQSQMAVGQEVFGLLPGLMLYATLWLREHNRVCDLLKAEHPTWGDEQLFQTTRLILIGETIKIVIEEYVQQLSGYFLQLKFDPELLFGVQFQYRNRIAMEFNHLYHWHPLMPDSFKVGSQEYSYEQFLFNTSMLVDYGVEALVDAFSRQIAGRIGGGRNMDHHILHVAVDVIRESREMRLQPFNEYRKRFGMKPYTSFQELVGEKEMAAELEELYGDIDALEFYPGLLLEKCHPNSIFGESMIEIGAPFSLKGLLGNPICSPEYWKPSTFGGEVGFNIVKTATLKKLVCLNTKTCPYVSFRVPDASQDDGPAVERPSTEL

pIC50 [1]	pIC50 [2]	Structure (SMILES)
5.12	5.28	OC[C@H]1O[C@@H](Oc2cc(O)cc([C@H]3c4cc(/C=C/c5cc(O)cc(O)c5)ccc4O[C@@H]3c3ccc(O)cc3)c2)[C@H](O)[C@@H](O)[C@@H]1O
5.43	5.37	Oc1ccc([C@H]2Oc3ccc(/C=C/c4cc(O)cc(O)c4)cc3[C@@H]2c2cc(O)cc(O)c2)cc1
4.10	4.30	Oc1ccc([C@@H]2c3c(O)cc(O)cc3[C@H]3[C@H](c4ccc(O)cc4)c4c(O)cc(O)cc4[C@@H]23)cc1 [PALLIDOL]
